Data published in article PMC12124432, “Antimicrobial Peptide‐Peptoid Macrocycles from the Polymyxin B2 Chemical Space” (Angewandte Chemie (International Ed. in English), 2025).
Bridge positions count the residues as written; N and C are the ends. Square brackets hold non-standard residues; d marks the D form. Peptide text beside a SMILES is read from it. * marks the point of attachment. N(3-phenylpropyl)Gly = O=C(O)CNCCCc1ccccc1; Gly(NCH2CH2Ph) = O=C(O)CNCCc1ccccc1; Gly(N-2-aminoethyl) = NCCNCC(=O)O; Gly(N(CH2)3NH2) = NCCCNCC(=O)O; Heptanoyl = CCCCCCC(=O)*; Octanoyl = CCCCCCCC(=O)*; Dab = NCC[C@H](N)C(=O)O; NPrGly = CCCNCC(=O)O

System: P. aeruginosa PAO1
Assay: Transmission electron microscopy (TEM)
Format: cell-based, Pseudomonas aeruginosa
Conditions: 10 × MIC, 12.5% MH, 2 h incubation at 37 °C, OD600 = 0.5
Description: Specific Fluorescence Enhacement
Concentration of Dansyl-PMB (μM)
Figure S9. Extracted data from the specific fluorescence enhancement data (Figure S8) from DsPMB at 485 nm. The plateau is reached at approximately 2.5 µM. Each data point represent mean ± SD, n =3.
15. Transmission Electron Microscopy (TEM)
Transmission electron microscopy was evaluated at a high cell density (10^8 CFU) and a concentration (10x MIC) that killed the bacteria, but not all of them. An overnight culture of P. aeruginosa PAO1 was regrown until exponential phase (1 mL, OD600 = 0.5) in 12.5% MH medium pH 7.4, treated with the compounds, in diluted MH medium (at pH 7.4) and incubated for 2 hours at 37 °C. Just before the samples were further prepared for the microscopy, surviving bacteria were quantified by plating 10-fold dilutions of samples in sterilized normal saline (NaCl 0.9 %) on LB agar plates. LB agar plates were incubated at 37 °C for 10 hours and the number of individual colonies was counted at each time-point, to monitor partial bacteria killing. The assay was performed in triplicates. Each bacteria sample was centrifuged at 12’000 rpm for 3 min and the supernatant was discarded. The samples were fixed overnight with 2.5% glutaraldehyde (Agar Scientific, Stansted, Essex, UK) in 0.15 M HEPES (Fluka, Buchs, Switzerland) with an osmolarity of 630 mOsm and adjusted to a pH of 7.44. […]

## CCCCCCCC(=O)N(CCc1ccccc1)CC(=O)N[C@@H](CCCCN)C(=O)N[C@@H](CC(N)=O)C(=O)N[C@H]1CCNC(=O)[C@H](CCCCN)NC(=O)CN(CCCN)C(=O)[C@H](CCCCN)NC(=O)CN(CCC)C(=O)[C@H](CCCCN)NC1=O [EB12] (Octanoyl-[Gly(NCH2CH2Ph)]KN[Dab]K[NPrGly]K[Gly(N(CH2)3NH2)]K; lactam 4-C)
  TEM pattern of treated P. aeruginosa cells: aggregation of intracellular contents

## CCCCCCC(=O)N[C@H](C(=O)N(CCN)CC(=O)N(CCCc1ccccc1)CC(=O)N[C@H]1CCNC(=O)[C@H](CCCCN)NC(=O)CN(CCCN)C(=O)[C@H](CCCCN)NC(=O)CNC(=O)[C@H](CCCCN)NC1=O)C(C)C [EB13] (Heptanoyl-V[Gly(N-2-aminoethyl)][N(3-phenylpropyl)Gly][Dab]KGK[Gly(N(CH2)3NH2)]K; lactam 4-C)
  TEM pattern of treated P. aeruginosa cells: aggregation of intracellular contents
